ChEMBL document CHEMBL1142232, “Inhibition of spinal microglial cathepsin S for the reversal of neuropathic pain” (Proc Natl Acad Sci U S A, 2007)
Active and inactive are the calls of the source. Where a SMILES comes first, the peptide text is derived from it. [ ]: non-standard residue; d: D form. Oic = O=C(O)[C@@H]1C[C@@H]2CCCC[C@@H]2N1; Hyp = O=C(O)[C@@H]1C[C@@H](O)CN1; dTic = O=C(O)[C@H]1Cc2ccccc2CN1; 2Thi = N[C@@H](Cc1cccs1)C(=O)O

How the values were obtained:
[1] = system: Rattus norvegicus; experiment: Inhibition of rat recombinant cathepsin S-induced hyperalgesia in naive Wistar rat at 50 nmol administered 30 mins before cathepsin S challenge; format: functional, organism-based
[2] = species: Rattus norvegicus; experiment: Inhibition of rat recombinant cathepsin S-induced hyperalgesia in Wistar rat at 50 ug; format: functional, organism-based
[3] = system: Rattus norvegicus; experiment: Antinociceptive activity in intrathecally dosed Wistar rat partial ligation of sciatic nerve 3-day neuropathic pain model assessed as alteration of mechanical allodynia at 50 nmol; format: functional, organism-based
[4] = system: Rattus norvegicus; experiment: Analgesic activity in intrathecally dosed Wistar rat partial ligation of sciatic nerve neuropathic pain model assessed as reduction of mechanical hyperalgesia at 50 nmol after 14 days; format: functional, organism-based
[5] = system: Rattus norvegicus; experiment: Analgesic activity in intrathecally dosed Wistar rat partial ligation of sciatic nerve neuropathic pain model assessed as attenuation of allodynia at 50 nmol after 7 days; format: functional, organism-based
[6] = system: Rattus norvegicus; experiment: Analgesic activity in intrathecally dosed Wistar rat partial ligation of sciatic nerve neuropathic pain model assessed as attenuation of allodynia at 50 nmol after 14 days; format: functional, organism-based
[7] = system: Rattus norvegicus; experiment: Analgesic activity in intrathecally dosed Wistar rat partial ligation of sciatic nerve neuropathic pain model assessed as reduction of mechanical hyperalgesia at 10 nmol after 14 days; format: functional, organism-based
[8] = system: Rattus norvegicus; experiment: Effect on contralateral mechanical thresholds in intrathecally dosed Wistar rat partial ligation of sciatic nerve neuropathic pain model; format: functional, organism-based
[9] = species: Rattus norvegicus; experiment: Toxicity in Wistar rat assessed as effect on motor behavior by rotarod test; format: organism-based; conditions: in vivo
[10] = species: Rattus norvegicus; experiment: Reduction of microglial activation in Wistar rat partial ligation of sciatic nerve neuropathic pain model at 30 nmol; format: functional, organism-based
[11] = species: Rattus norvegicus; experiment: Analgesic activity in Wistar rat partial ligation of sciatic nerve model of neuropathic pain assessed as reversal of allodynia at 30 nmol after 3 to 5 days; format: functional, organism-based
[12] = species: Rattus norvegicus; experiment: Analgesic activity in Wistar rat partial ligation of sciatic nerve model of neuropathic pain assessed as reversal of allodynia at 30 nmol after 7 days; format: functional, organism-based
[13] = species: Rattus norvegicus; experiment: Effect on sarcosine-induced hyperalgesia in Wistar rat; format: functional, organism-based
[14] = species: Rattus norvegicus; experiment: Effect on NMDA-induced hyperalgesia in Wistar rat; format: functional, organism-based

Structure (SMILES): N=C(N)NCCC[C@@H](N)C(=O)N[C@@H](CCCNC(=N)N)C(=O)N1CCC[C@H]1C(=O)N1C[C@H](O)C[C@H]1C(=O)NCC(=O)N[C@@H](Cc1cccs1)C(=O)N[C@@H](CO)C(=O)N1Cc2ccccc2C[C@@H]1C(=O)N1[C@H](C(=O)O)C[C@@H]2CCCC[C@@H]21 (H-[dR]RP[Hyp]G[2Thi]S[dTic][Oic]-OH)
- Activity [1]: inactive
- Activity [2]: inactive

Structure (SMILES): N=C(N)NCCC[C@@H](N)C(=O)N[C@@H](CCCNC(=N)N)C(=O)N1CCC[C@H]1C(=O)N1C[C@H](O)C[C@H]1C(=O)NCC(=O)N[C@@H](Cc1cccs1)C(=O)N[C@@H](CO)C(=O)N1Cc2ccccc2C[C@@H]1C(=O)N1[C@H](C(=O)N[C@@H](CCCNC(=N)N)C(=O)O)C[C@@H]2CCCC[C@@H]21
- Activity [1]: inactive
- Activity [2]: inactive

Structure (SMILES): CC(C)C[C@@H](NC(=O)N1CCOCC1)C(=O)N[C@@H](/C=C/S(=O)(=O)c1ccccc1)CCc1ccccc1
- Activity [3]: inactive
- Activity [4]: Active
- Activity [5]: Active
- Activity [6]: Active
- Activity [7]: Active
- Activity [8]: inactive
- Activity [9]: Non-toxic
- Activity [10]: Active
- Activity [11]: inactive
- Activity [12]: Active
- Activity [13]: inactive
- Activity [1]: inactive
- Activity [14]: inactive
